Among the data in the NIST ThermoML archive (doi:10.1016/j.jct.2015.04.006) are speed of sound and mass density values, retold here.

The conditions of series [1]: 100 kPa, Liquid; for speed of sound: Frequency=3 MHz, Sing-around technique in a fixed-path interferometer; for mass density: Vibrating tube method.
The nature of series [2]: mn = molality of the nth substance listed, in mol/kg. To be noted: 100 kPa, Liquid, m2 = 0; for speed of sound: Frequency=3 MHz, Sing-around technique in a fixed-path interferometer; for mass density: Vibrating tube method.

± gives the expanded uncertainty stated by the source.

By speed of sound is commonly meant the propagation velocity of pressure waves in the medium. Broadly, the mass density is the mass of a sample divided by its volume. As to `C[S+](C)[O-]` [dimethyl sulfoxide], the speed of sound in series [1] (298.15 K) was 1484.6 ± 1.2 m/s; in series [1] (303.15 K), 1467.7 ± 1.2 m/s; in series [1] (308.15 K) it was 1450.8 ± 1.2 m/s; in series [1] (313.15 K), 1434.1 ± 1.2 m/s; in series [1] (318.15 K), 1417.5 ± 1.2 m/s. Further, the mass density in series [1] (298.15 K) is 1095.28 ± 0.21 kg/m3; in series [1] (303.15 K), 1090.26 ± 0.26 kg/m3; in series [1] (308.15 K), 1085.24 ± 0.24 kg/m3; in series [1] (313.15 K) it was 1080.22 ± 0.24 kg/m3; in series [1] (318.15 K), 1075.21 ± 0.26 kg/m3.
For `C[S+](C)[O-]` [dimethyl sulfoxide] + CCCCCCCC[N+]1(C)CCOCC1.O=S(=O)([N-]S(=O)(=O)C(F)(F)F)C(F)(F)F, the speed of sound in series [2] (298.15 K) was determined as 1484.6 ± 1.2 m/s; in series [2] (303.15 K), 1467.7 ± 1.2 m/s; in series [2] (308.15 K), 1450.8 ± 1.2 m/s; in series [2] (313.15 K), 1434.1 ± 1.2 m/s; in series [2] (318.15 K), 1417.5 ± 1.2 m/s. Further, the mass density in series [2] (298.15 K) is reported as 1095.28 ± 0.21 kg/m3; in series [2] (303.15 K) it was 1090.26 ± 0.21 kg/m3; in series [2] (308.15 K) it was 1085.24 ± 0.21 kg/m3; in series [2] (313.15 K), 1080.22 ± 0.21 kg/m3; in series [2] (318.15 K) it was 1075.21 ± 0.21 kg/m3.
Turning to `C[S+](C)[O-]` [dimethyl sulfoxide] + CCCC[N+]1(C)CCOCC1.O=S(=O)([N-]S(=O)(=O)C(F)(F)F)C(F)(F)F, the speed of sound in series [2] (298.15 K) stood at 1484.6 ± 1.2 m/s; in series [2] (303.15 K) it was 1467.7 ± 1.2 m/s; in series [2] (308.15 K), 1450.8 ± 1.2 m/s; in series [2] (313.15 K), 1434.1 ± 1.2 m/s; in series [2] (318.15 K), 1417.5 ± 1.2 m/s. Further, the mass density was determined as 1095.28 ± 0.24 kg/m3 in series [2] (298.15 K); 1090.26 ± 0.24 kg/m3 in series [2] (303.15 K); 1085.24 ± 0.24 kg/m3 in series [2] (308.15 K); 1080.22 ± 0.24 kg/m3 in series [2] (313.15 K); 1075.21 ± 0.24 kg/m3 in series [2] (318.15 K).
In the case of `C[S+](C)[O-]` [dimethyl sulfoxide] + CC[N+]1(C)CCOCC1.O=S(=O)([N-]S(=O)(=O)C(F)(F)F)C(F)(F)F, the speed of sound came out at 1484.6 ± 1.2 m/s in series [2] (298.15 K); 1467.7 ± 1.2 m/s in series [2] (303.15 K); 1450.8 ± 1.2 m/s in series [2] (308.15 K); 1434.1 ± 1.2 m/s in series [2] (313.15 K); 1417.5 ± 1.2 m/s in series [2] (318.15 K). For the same molecule, the mass density was 1095.28 ± 0.26 kg/m3 in series [2] (298.15 K); 1090.26 ± 0.26 kg/m3 in series [2] (303.15 K); 1085.24 ± 0.26 kg/m3 in series [2] (308.15 K); 1080.22 ± 0.26 kg/m3 in series [2] (313.15 K); 1075.21 ± 0.26 kg/m3 in series [2] (318.15 K).
